From patent US9833497B2, “Human originated EGF domain proteins and use of the same” (CHENGDU SOURCEBIO LIMITED-LIABILITY COMPANY, priority 2013, dated 2017)

Experiments:
Format in all cases: cell-based
E. coli DH5α = test: Antibacterial activity: MIC and growth curve against E. coli DH5α in 96-well plate; settings: minimal inhibitory concentration against E. coli DH5α; 96-well plate, 5×10^5 CFU/mL, 37° C., judged after 8 h
How it was run: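 MIC taken as lowest protein level with no bacterial growth, tracked by A600 every 30 min during 37 °C, 175 rpm culture. Two-fold protein series 50-12.5 μg/mL final, triplicate wells, against 5×10^5 CFU/mL of LB-washed mid-log cells.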

E. coli BL21 = test: MIC against Gram-negative bacteria: E. coli BL21; settings: for MIC E. coli BL21: two-fold serial dilution
How it was run: (§1)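 The recombinant human-originated EGF domain proteins were serially diluted two-fold against bacteria at 5×10^5 CFU/mL in LB medium. After shaken incubation at 37° C, the lowest concentration with no bacterial growth was recorded as the MIC.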

Pseudomonas aeruginosa = test: MIC against Gram-negative bacteria: Pseudomonas aeruginosa; settings: for MIC P. aeruginosa: two-fold serial dilution
How it was run: as §1

Klebsiella pneumonia = test: MIC against Gram-negative bacteria: Klebsiella pneumonia; settings: for MIC K. pneumonia: two-fold serial dilution
How it was run: as §1

Enterobacter cloacae = test: MIC against Gram-negative bacteria: Enterobacter cloacae; settings: for MIC E. cloacae: two-fold serial dilution
How it was run: as §1

Aeromonas hydrophila = test: MIC against Gram-negative bacteria: Aeromonas hydrophila; settings: for MIC A. hydrophila: two-fold serial dilution
How it was run: as §1

Citrobacter diversus = test: MIC against Gram-negative bacteria: Citrobacter diversus; settings: for MIC C. diversus: two-fold serial dilution
How it was run: as §1

Moraxella catarrhalis = test: MIC against Gram-negative bacteria: Moraxella catarrhalis; settings: for MIC M. catarrhalis: two-fold serial dilution
How it was run: as §1

Proteus mirabilis = test: MIC against Gram-negative bacteria: Proteus mirabilis; settings: for MIC P. mirabilis: two-fold serial dilution
How it was run: as §1

Proteus vulgaris = test: MIC against Gram-negative bacteria: Proteus vulgaris; settings: for MIC P. vulgaris: two-fold serial dilution
How it was run: as §1

Serratia marcescens = test: MIC against Gram-negative bacteria: Serratia marcescens; settings: for MIC S. marcescens: two-fold serial dilution
How it was run: as §1

[1] = E. coli BL21, 96-well plate, 5×10^5 CFU/mL, 37° C., 10 h
[2] = Pseudomonas aeruginosa, 96-well plate, 5×10^5 CFU/mL, 37° C., 10 h
[3] = Klebsiella pneumonia, 96-well plate, 5×10^5 CFU/mL, 37° C., 10 h
[4] = Enterobacter cloacae, 96-well plate, 5×10^5 CFU/mL, 37° C., 10 h
[5] = Aeromonas hydrophila, 96-well plate, 5×10^5 CFU/mL, 37° C., 10 h
[6] = Citrobacter diversus, 96-well plate, 5×10^5 CFU/mL, 37° C., 10 h
[7] = Moraxella catarrhalis, 96-well plate, 5×10^5 CFU/mL, 37° C., 10 h
[8] = Proteus mirabilis, 96-well plate, 5×10^5 CFU/mL, 37° C., 10 h
[9] = Proteus vulgaris, 96-well plate, 5×10^5 CFU/mL, 37° C., 10 h
[10] = Serratia marcescens, 96-well plate, 5×10^5 CFU/mL, 37° C., 10 h
[11] = 10 h cultivation at 37° C., 5×10^5 CFU/mL

PRT1203 (DIDECAEGRHYCRENTMCVNTPGSFMCICKTGYIRIDDYSCT; listed as Homo sapiens)
MIC (E. coli DH5α): 25 µg/mL
MIC against E. coli BL21 (E. coli BL21; [1]): 12.5 µg/mL
MIC against P. aeruginosa (Pseudomonas aeruginosa; [2]): 50 µg/mL
MIC against K. pneumonia (Klebsiella pneumonia; [3]): 25 µg/mL
MIC against E. cloacae (Enterobacter cloacae; [4]): 12.5 µg/mL
MIC against A. hydrophila (Aeromonas hydrophila; [5]): 50 µg/mL
MIC against C. diversus (Citrobacter diversus; [6]): 12.5 µg/mL
MIC against M. catarrhalis (Moraxella catarrhalis; [7]): 50 µg/mL
MIC against P. mirabilis (Proteus mirabilis; [8]): 12.5 µg/mL
MIC against P. vulgaris (Proteus vulgaris; [9]): 25 µg/mL
MIC against S. marcescens (Serratia marcescens; [10]): 50 µg/mL

PRT32 (RCEAQKWGPECNHLCTACMNNGVCHEDTGECICPPGFMGRTCE; listed as Homo sapiens)
MIC (E. coli DH5α): 12.5 µg/mL
MIC (μg/mL) E. coli BL21 (E. coli BL21; [1]): 50 µg/mL
MIC (μg/mL) P. aeruginosa (Pseudomonas aeruginosa; [2]): 12.5 µg/mL
MIC (μg/mL) K. pneumonia (Klebsiella pneumonia; [3]): 12.5 µg/mL
MIC (μg/mL) E. cloacae (Enterobacter cloacae; [4]): 25 µg/mL
MIC (μg/mL) A. hydrophila (Aeromonas hydrophila; [5]): 50 µg/mL
MIC (μg/mL) C. diversus (Citrobacter diversus; [6]): 12.5 µg/mL
MIC (μg/mL) M. catarrhalis (Moraxella catarrhalis; [7]): 50 µg/mL
MIC (μg/mL) P. mirabilis (Proteus mirabilis; [8]): 12.5 µg/mL
MIC (μg/mL) P. vulgaris (Proteus vulgaris; [9]): 25 µg/mL
MIC (μg/mL) S. marcescens (Serratia marcescens; [10]): 50 µg/mL

PRT1140 (DVKDCLFLSCQDYGDCEDMVNNFRCICRPGFSGSLCE; listed as Homo sapiens)
MIC (E. coli DH5α): 25 µg/mL
MIC E. coli BL21 (E. coli BL21; [11]): 50 µg/mL
MIC P. aeruginosa (Pseudomonas aeruginosa; [11]): 12.5 µg/mL
MIC K. pneumonia (Klebsiella pneumonia; [11]): 50 µg/mL
MIC E. cloacae (Enterobacter cloacae; [11]): 12.5 µg/mL
MIC A. hydrophila (Aeromonas hydrophila; [11]): 50 µg/mL
MIC C. diversus (Citrobacter diversus; [11]): 12.5 µg/mL
MIC M. catarrhalis (Moraxella catarrhalis; [11]): 50 µg/mL
MIC P. mirabilis (Proteus mirabilis; [11]): 12.5 µg/mL
MIC P. vulgaris (Proteus vulgaris; [11]): 50 µg/mL
MIC S. marcescens (Serratia marcescens; [11]): 100 µg/mL

PRT30 (PCDCYPVGSTSRSCAPHSGQCPCRPGALGRQCNSCDSPF; listed as Homo sapiens)
MIC (E. coli DH5α): 25 µg/mL
MIC (μg/mL) E. coli BL21 (E. coli BL21; [1]): 50 µg/mL
MIC (μg/mL) P. aeruginosa (Pseudomonas aeruginosa; [2]): 12.5 µg/mL
MIC (μg/mL) K. pneumonia (Klebsiella pneumonia; [3]): 25 µg/mL
MIC (μg/mL) E. cloacae (Enterobacter cloacae; [4]): 50 µg/mL
MIC (μg/mL) A. hydrophila (Aeromonas hydrophila; [5]): 12.5 µg/mL
MIC (μg/mL) C. diversus (Citrobacter diversus; [6]): 25 µg/mL
MIC (μg/mL) M. catarrhalis (Moraxella catarrhalis; [7]): 50 µg/mL
MIC (μg/mL) P. mirabilis (Proteus mirabilis; [8]): 12.5 µg/mL
MIC (μg/mL) P. vulgaris (Proteus vulgaris; [9]): 25 µg/mL
MIC (μg/mL) S. marcescens (Serratia marcescens; [10]): 12.5 µg/mL

PRT974 (EADPCLSRPCLHGGVCSAAHPGFRCTCLESFTGPQCQ; listed as Homo sapiens)
MIC (E. coli DH5α): 25 µg/mL
MIC (E. coli BL21; E. coli BL21, 10 h cultivation at 37° C.): 50 µg/mL
MIC (Pseudomonas aeruginosa; P. aeruginosa, 10 h cultivation at 37° C.): 12.5 µg/mL
MIC (Klebsiella pneumonia; K. pneumonia, 10 h cultivation at 37° C.): 50 µg/mL
MIC (Enterobacter cloacae; E. cloacae, 10 h cultivation at 37° C.): 12.5 µg/mL
MIC (Aeromonas hydrophila; A. hydrophila, 10 h cultivation at 37° C.): 50 µg/mL
MIC (Citrobacter diversus; C. diversus, 10 h cultivation at 37° C.): 25 µg/mL
MIC (Moraxella catarrhalis; M. catarrhalis, 10 h cultivation at 37° C.): 12.5 µg/mL
MIC (Proteus mirabilis; P. mirabilis, 10 h cultivation at 37° C.): 50 µg/mL
MIC (Proteus vulgaris; P. vulgaris, 10 h cultivation at 37° C.): 25 µg/mL
MIC (Serratia marcescens; S. marcescens, 10 h cultivation at 37° C.): 12.5 µg/mL

PRT1077 (RSHACENDQYGKPGGCSDICLLANSHKARTCRCRSGFSLGSDGKSCK; listed as Homo sapiens)
MIC (E. coli DH5α): 12.5 µg/mL
MIC E. coli BL21 (E. coli BL21; [11]): 12.5 µg/mL
MIC P. aeruginosa (Pseudomonas aeruginosa; [11]): 12.5 µg/mL
MIC K. pneumonia (Klebsiella pneumonia; [11]): 50 µg/mL
MIC E. cloacae (Enterobacter cloacae; [11]): 25 µg/mL
MIC A. hydrophila (Aeromonas hydrophila; [11]): 25 µg/mL
MIC C. diversus (Citrobacter diversus; [11]): 25 µg/mL
MIC M. catarrhalis (Moraxella catarrhalis; [11]): 25 µg/mL
MIC P. mirabilis (Proteus mirabilis; [11]): 25 µg/mL
MIC P. vulgaris (Proteus vulgaris; [11]): 50 µg/mL
MIC S. marcescens (Serratia marcescens; [11]): 12.5 µg/mL

PRT62 (ASGDCVPSPCHNGGTCLEEEEGVRCLCLPGYGGDLCD; listed as Homo sapiens)
MIC (E. coli DH5α): 12.5 µg/mL
MIC (μg/mL) E. coli BL21 (E. coli BL21; [1]): 100 µg/mL
MIC (μg/mL) P. aeruginosa (Pseudomonas aeruginosa; [2]): 12.5 µg/mL
MIC (μg/mL) K. pneumonia (Klebsiella pneumonia; [3]): 12.5 µg/mL
MIC (μg/mL) E. cloacae (Enterobacter cloacae; [4]): 12.5 µg/mL
MIC (μg/mL) A. hydrophila (Aeromonas hydrophila; [5]): 25 µg/mL
MIC (μg/mL) C. diversus (Citrobacter diversus; [6]): 12.5 µg/mL
MIC (μg/mL) M. catarrhalis (Moraxella catarrhalis; [7]): 25 µg/mL
MIC (μg/mL) P. mirabilis (Proteus mirabilis; [8]): 12.5 µg/mL
MIC (μg/mL) P. vulgaris (Proteus vulgaris; [9]): 12.5 µg/mL
MIC (μg/mL) S. marcescens (Serratia marcescens; [10]): 25 µg/mL
